Source: patent US12404239B2, “Modulators of BCL6 as ligand directed degraders” (Celgene Corporation, priority 2022, dated 2025)

The compounds below were run against T1, BCL6 (Homo sapiens, UniProt P41182) (assay: BCL6_HiBiT degradation assay (2 h)). Conditions: DHL-4_BCL6_HiBiT cells, read-out: YCon (% remaining maximal effect).
T1 construct: HiBiT-tag knocked into endogenous BCL6 locus using CRISPR; endogenous in cells; host or cells: DHL-4_BCL6_HiBiT cells (CRISPR knock-in)
Type: cell-based
Method: A DHL-4 cell line with HiBiT-tag knocked into endogenous BCL6 locus using CRISPR was generated. The DHL-4_BCL6_HiBiT cells were dispensed into 384-well plates (Corning no. 3570) that were pre-spotted with compounds. Compounds were dispensed by an acoustic dispenser (ATS acoustic transfer system from EDC Biosystems) into a 384-well plate in a 10-point dose response curve using 3-fold dilutions starting at 1-10 μM and going down to […]. 25 μL of media (RPMI-1640+10% heat inactivated FBS+1×Pen/Strep) containing 2500 of DHL-4 was dispensed per well. Assay plates were incubated at 37° C. with 5% CO2 for 2 hours. After incubation, 25 μL of the Nano-Glo HiBiT lytic detection working solution (Promega, catalogue no. N3040, Madison, WI) was added to each well and incubated at room temperature for 15-30 min, protected from light. After 30 min, luminescence was read on an Envision or PHERAstar luminescence reader. To determine the EC50 value (the half-maximum effective concentration) and the level of the gradation (Yconstant) of a BCL6 degrader, luminescent signal normalized by DMSO control (Y) and compound concentration (x) was fitted using a four-parameter dose-response model (Y=(A+((B−A)/1+((C/x)^D) in Dotmatics. Fitted value C is the degradation EC50 and the minimum value A is the Y constant.
The degradation of BCL6 at 2 h in DHL-4 results are shown in Table 5, where EC50 is the half maximal effect and Ycon is the % remaining maximal effect.

Row | SMILES | Percent BCL6 remaining at maximal degradation (Ycon)
1 | Cn1nc(C2CCC(=O)NC2=O)c2ccc(N3CCC(Nc4ncc(Cl)c(Nc5ccc6c(c5)N(CCC(C)(C)O)C(=O)C6)n4)CC3)cc21 (centres unmarked) [Example 8, 3-(6-(4-((5-chloro-4-((1-(3-hydroxy-3-methylbutyl)-2-oxoindolin-6-yl)amino)pyrimidin-2-yl)amino)piperidin-1-yl)-1-methyl-1H-indazol-3-yl)piperidine-2,6-dione] | > 60%
2 | Cn1nc(C2CCC(=O)NC2=O)c2ccc(NC3CCN(c4ncc(Cl)c(Nc5ccc6c(c5)N(CCC(C)(C)O)C(=O)C6)n4)CC3)cc21 (centres unmarked) [Example 9, 3-[6-[[1-[5-Chloro-4-[[1-(3-hydroxy-3-methyl-butyl)-2-oxo-indolin-6-yl]amino]pyrimidin-2-yl]-4-piperidyl]amino]-1-methyl-indazol-3-yl]piperidine-2,6-dione] | > 60%
3 | CN(c1ccc2c(C3CCC(=O)NC3=O)nn(C)c2c1)C1CCN(c2ncc(Cl)c(Nc3ccc4c(c3)N(CCC(C)(C)O)C(=O)C4)n2)CC1 (centres unmarked) [Example 10, 3-(6-((1-(5-chloro-4-((1-(3-hydroxy-3-methylbutyl)-2-oxoindolin-6-yl)amino)pyrimidin-2-yl)piperidin-4-yl)(methyl)amino)-1-methyl-1H-indazol-3-yl)piperidine-2,6-dione] | 20 to 60%
4 | CN(c1ncc(Cl)c(Nc2ccc3c(c2)N(CCC(C)(C)O)C(=O)C3)n1)C1CCN(c2ccc3c(C4CCC(=O)NC4=O)nn(C)c3c2)CC1 (centres unmarked) [Example 11, 3-(6-(4-((5-chloro-4-((1-(3-hydroxy-3-methylbutyl)-2-oxoindolin-6-yl)amino)pyrimidin-2-yl)(methyl)amino)piperidin-1-yl)-1-methyl-1H-indazol-3-yl)piperidine-2,6-dione] | > 60%
5 | C[C@@H]1CN(c2ncc(Cl)c(Nc3ccc4c(c3)CC(=O)N4C)n2)CC[C@@H]1Nc1ccc2c(C3CCC(=O)NC3=O)nn(C)c2c1 (stereo partly drawn) [Example 12, 3-(6-{[(3R,4S)-1-{5-chloro-4-[(1-methyl-2-oxo-2,3-dihydro-1H-indol-5-yl)amino]pyrimidin-2-yl}-3-methylpiperidin-4-yl]amino}-1-methyl-1H-indazol-3-yl)piperidine-2,6-dione] | < 20%
6 | C[C@H]1CN(c2ncc(Cl)c(Nc3ccc4c(c3)CC(=O)N4C)n2)CC[C@H]1Nc1ccc2c(C3CCC(=O)NC3=O)nn(C)c2c1 (stereo partly drawn) [Example 13, 3-(6-(((3S,4R)-1-(5-chloro-4-((1-methyl-2-oxoindolin-5-yl)amino)pyrimidin-2-yl)-3-methylpiperidin-4-yl)amino)-1-methyl-1H-indazol-3-yl)piperidine-2,6-dione] | > 60%
7 | C[C@H]1CN(c2ncc(Cl)c(Nc3ccc4c(c3)CC(=O)N4C)n2)CC[C@@H]1Nc1ccc2c(C3CCC(=O)NC3=O)nn(C)c2c1 (stereo partly drawn) [Example 14, 3-(6-(((3S,4S)-1-(5-chloro-4-((1-methyl-2-oxoindolin-5-yl)amino)pyrimidin-2-yl)-3-methylpiperidin-4-yl)amino)-1-methyl-1H-indazol-3-yl)piperidine-2,6-dione] | > 60%
8 | CN1C(=O)Cc2cc(Nc3nc(N(C)C4CC5CCC(C4)N5c4ccc5c(C6CCC(=O)NC6=O)nn(C)c5c4)ncc3Cl)ccc21 [Example 15, 3-(6-((1R,3s,5S)-3-((5-chloro-4-((1-methyl-2-oxoindolin-5-yl)amino)pyrimidin-2-yl)(methyl)amino)-8-azabicyclo[3.2.1]octan-8-yl)-1-methyl-1H-indazol-3-yl)piperidine-2,6-dione] | > 60%
9 | CN1C(=O)Cc2cc(Nc3nc(N(C)[C@H]4C[C@H]5CC[C@@H](C4)N5c4ccc5c(C6CCC(=O)NC6=O)nn(C)c5c4)ncc3Cl)ccc21 (stereo partly drawn) [Example 16, 3-(6-((1R,3r,5S)-3-((5-chloro-4-((1-methyl-2-oxoindolin-yl)amino)pyrimidin-2-yl)(methyl)amino)-8-azabicyclo[3.2.1]octan-8-yl)-1-methyl-1H-indazol-3-yl)piperidine-2,6-dione] | 20 to 60%
10 | CN1C(=O)Cc2cc(Nc3nc(N4CCN(Cc5ccc6c(C7CCC(=O)NC7=O)nn(C)c6c5)CC4)ncc3Cl)ccc21 (centres unmarked) [Example 17, 3-(6-((4-(5-chloro-4-((1-methyl-2-oxoindolin-5-yl)amino)pyrimidin-2-yl)piperazin-1-yl)methyl)-1-methyl-1H-indazol-3-yl)piperidine-2,6-dione] | > 60%
11 | Cn1nc(C2CCC(=O)NC2=O)c2ccc(NC3CCN(c4ncc(Cl)c(Nc5ccc6c(c5)CC(=O)N6CC(F)(F)F)n4)CC3)cc21 (centres unmarked) [Example 18, 3-(6-((1-(5-chloro-4-((2-oxo-1-(2,2,2-trifluoroethyl)indolin-5-yl)amino)pyrimidin-2-yl)piperidin-4-yl)amino)-1-methyl-1H-indazol-3-yl)piperidine-2,6-dione] | > 60%

Now from value to compound:

Row | Percent BCL6 remaining at maximal degradation (Ycon) | SMILES
12 | 20 to 60% | C[C@H]1C[C@@H](Nc2ccc3c(C4CCC(=O)NC4=O)nn(C)c3c2)CCN1c1ncc(Cl)c(Nc2ccc3c(c2)CC(=O)N3C)n1 (stereo partly drawn) [Example 19, 3-(6-(((2S,4S)-1-(5-chloro-4-((1-methyl-2-oxoindolin-5-yl)amino)pyrimidin-2-yl)-2-methylpiperidin-4-yl)amino)-1-methyl-1H-indazol-3-yl)piperidine-2,6-dione]
13 | 20 to 60% | C[C@H]1C[C@@H](N(C)c2ncc(Cl)c(Nc3ccc4c(c3)CC(=O)N4C)n2)CCN1c1ccc2c(C3CCC(=O)NC3=O)nn(C)c2c1 (stereo partly drawn) [Example 20, 3-(6-((2S,4S)-4-((5-chloro-4-((1-methyl-2-oxoindolin-5-yl)amino)pyrimidin-2-yl)(methyl)amino)-2-methylpiperidin-1-yl)-1-methyl-1H-indazol-3-yl)piperidine-2,6-dione]
14 | > 60% | C[C@@H]1C[C@H](N(C)c2ccc3c(C4CCC(=O)NC4=O)nn(C)c3c2)CCN1c1ncc(Cl)c(Nc2ccc3c(c2)CC(=O)N3C)n1 (stereo partly drawn) [Example 21, 3-(6-(((2R,4R)-1-(5-chloro-4-((1-methyl-2-oxoindolin-5-yl)amino)pyrimidin-2-yl)-2-methylpiperidin-4-yl)(methyl)amino)-1-methyl-1H-indazol-3-yl)piperidine-2,6-dione]
15 | > 60% | C[C@@H]1C[C@H](Nc2ccc3c(C4CCC(=O)NC4=O)nn(C)c3c2)CCN1c1ncc(Cl)c(Nc2ccc3c(c2)CC(=O)N3C)n1 (stereo partly drawn) [Example 22, 3-(6-(((2R,4R)-1-(5-chloro-4-((1-methyl-2-oxoindolin-5-yl)amino)pyrimidin-2-yl)-2-methylpiperidin-4-yl)amino)-1-methyl-1H-indazol-3-yl)piperidine-2,6-dione]
16 | > 60% | C[C@@H]1C[C@@H](Nc2ccc3c(C4CCC(=O)NC4=O)nn(C)c3c2)CCN1c1ncc(Cl)c(Nc2ccc3c(c2)CC(=O)N3C)n1 (stereo partly drawn) [Example 23, 3-(6-(((2R,4S)-1-(5-chloro-4-((1-methyl-2-oxoindolin-5-yl)amino)pyrimidin-2-yl)-2-methylpiperidin-4-yl)amino)-1-methyl-1H-indazol-3-yl)piperidine-2,6-dione]
17 | > 60% | C[C@H]1C[C@@H](N(C)c2ccc3c(C4CCC(=O)NC4=O)nn(C)c3c2)CCN1c1ncc(Cl)c(Nc2ccc3c(c2)CC(=O)N3C)n1 (stereo partly drawn) [Example 24, 3-(6-(((2S,4S)-1-(5-chloro-4-((1-methyl-2-oxoindolin-5-yl)amino)pyrimidin-2-yl)-2-methylpiperidin-4-yl)(methyl)amino)-1-methyl-1H-indazol-3-yl)piperidine-2,6-dione]
18 | > 60% | C[C@@H]1C[C@@H](N(C)c2ccc3c(C4CCC(=O)NC4=O)nn(C)c3c2)CCN1c1ncc(Cl)c(Nc2ccc3c(c2)CC(=O)N3C)n1 (stereo partly drawn) [Example 25, 3-(6-(((2R,4S)-1-(5-chloro-4-((1-methyl-2-oxoindolin-5-yl)amino)pyrimidin-2-yl)-2-methylpiperidin-4-yl)(methyl)amino)-1-methyl-1H-indazol-3-yl)piperidine-2,6-dione]
19 | > 60% | C[C@@H]1CN(c2ncc(Cl)c(Nc3ccc4c(c3)CC(=O)N4C)n2)C[C@H](C)N1c1ccc2c(C3CCC(=O)NC3=O)nn(C)c2c1 (stereo partly drawn) [Example 26, 3-(6-((2S,6R)-4-(5-chloro-4-((1-methyl-2-oxoindolin-5-yl)amino)pyrimidin-2-yl)-2,6-dimethylpiperazin-1-yl)-1-methyl-1H-indazol-3-yl)piperidine-2,6-dione]
20 | > 60% | C[C@@H]1CN(c2ccc3c(C4CCC(=O)NC4=O)nn(C)c3c2)C[C@@H](C)N1c1ncc(Cl)c(Nc2ccc3c(c2)CC(=O)N3C)n1 (stereo partly drawn) [Example 28, 3-(6-((3R,5R)-4-(5-chloro-4-((1-methyl-2-oxoindolin-5-yl)amino)pyrimidin-2-yl)-3,5-dimethylpiperazin-1-yl)-1-methyl-1H-indazol-3-yl)piperidine-2,6-dione]
